Data reported in PubChem BioAssay (NCI).
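At the GI50, growth is halved. At the TGI there is no net growth.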

How the values were obtained:
Assay in all cases: NCI anticancer screen, dose series, 384-well format
SK-MEL-28 melanoma = tested on: SK-MEL-28 melanoma
A549 NSCLC = tested on: A549 NSCLC
RXF 393 renal = tested on: RXF 393 renal
UO-31 renal = tested on: UO-31 renal
EKVX NSCLC = tested on: EKVX NSCLC
HOP-92 NSCLC = tested on: HOP-92 NSCLC
SK-MEL-5 melanoma = tested on: SK-MEL-5 melanoma
MDA-MB-435 melanoma = tested on: MDA-MB-435 melanoma
HT29 colon = tested on: HT29 colon
TK-10 renal = tested on: TK-10 renal
HOP-62 NSCLC = tested on: HOP-62 NSCLC
OVCAR-3 ovarian = tested on: OVCAR-3 ovarian
UACC-62 melanoma = tested on: UACC-62 melanoma
SNB-19 CNS = tested on: SNB-19 CNS
HCT-116 colon = tested on: HCT-116 colon
HS 578T breast = tested on: HS 578T breast
786-0 renal = tested on: 786-0 renal
SF-539 CNS = tested on: SF-539 CNS
M14 melanoma = tested on: M14 melanoma
MDA-MB-231 breast = tested on: MDA-MB-231 breast
NCI-H522 lung = tested on: NCI-H522 lung
OVCAR-8 ovarian = tested on: OVCAR-8 ovarian
MDA-MB-468 breast = tested on: MDA-MB-468 breast
NCI-H460 NSCLC = tested on: NCI-H460 NSCLC
MCF7 breast = tested on: MCF7 breast
A498 renal = tested on: A498 renal
T-47D breast = tested on: T-47D breast
OVCAR-5 ovarian = tested on: OVCAR-5 ovarian
U251 glioblastoma = tested on: U251 glioblastoma
SN12C renal = tested on: SN12C renal
BT-549 breast = tested on: BT-549 breast
NCI/ADR-RES ovarian = tested on: NCI/ADR-RES ovarian
SF-268 CNS = tested on: SF-268 CNS
HCT-15 colon = tested on: HCT-15 colon
IGROV1 ovarian = tested on: IGROV1 ovarian
HL-60(TB) leukemia = tested on: HL-60(TB) leukemia
SW-620 colon = tested on: SW-620 colon
UACC-257 melanoma = tested on: UACC-257 melanoma
NCI-H226 lung = tested on: NCI-H226 lung
K-562 leukemia = tested on: K-562 leukemia
NCI-H23 lung = tested on: NCI-H23 lung
RPMI-8226 leukemia = tested on: RPMI-8226 leukemia
MALME-3M melanoma = tested on: MALME-3M melanoma
MOLT-4 leukemia = tested on: MOLT-4 leukemia
DU-145 prostate = tested on: DU-145 prostate
OVCAR-4 ovarian = tested on: OVCAR-4 ovarian
NCI-H322M lung = tested on: NCI-H322M lung
CAKI-1 renal = tested on: CAKI-1 renal
HCC-2998 colon = tested on: HCC-2998 colon
PC-3 prostate = tested on: PC-3 prostate
KM12 colon = tested on: KM12 colon
SK-OV-3 ovarian = tested on: SK-OV-3 ovarian
ACHN renal = tested on: ACHN renal
SF-295 CNS = tested on: SF-295 CNS
LOX IMVI melanoma = tested on: LOX IMVI melanoma
SNB-75 CNS = tested on: SNB-75 CNS

`O=C(Nc1cccc(Cl)c1)Nc1ncc(CCNc2ncnc3ccsc23)s1` was tested, and the GI50 (SK-MEL-28 melanoma) was 10.4 µM, the TGI (SK-MEL-28 melanoma) was 22.2 µM and the GI50 (A549 NSCLC) was 0.121 µM. For the same molecule, the TGI (A549 NSCLC) was 15.4 µM, the GI50 (RXF 393 renal) was 0.0169 µM and the TGI (RXF 393 renal) was 2.55 µM. It also gave a GI50 (UO-31 renal) of 3.5 µM, a TGI (UO-31 renal) of 19.7 µM and a GI50 (EKVX NSCLC) of 1.68 µM. It also gave a TGI (EKVX NSCLC) of 16.1 µM, a GI50 (HOP-92 NSCLC) of 3.53 µM and a TGI (HOP-92 NSCLC) of 18.4 µM. The GI50 (SK-MEL-5 melanoma) was 1.08 µM, the TGI (SK-MEL-5 melanoma) was 2.53 µM and the GI50 (MDA-MB-435 melanoma) was 10 µM. The TGI (MDA-MB-435 melanoma) was 21.6 µM, the GI50 (HT29 colon) was 2.42 µM and the TGI (HT29 colon) was 14.5 µM. The GI50 (TK-10 renal) was 9.81 µM, the TGI (TK-10 renal) was 21.6 µM and the GI50 (HOP-62 NSCLC) was 0.356 µM. It also gave a TGI (HOP-62 NSCLC) of 11 µM, a GI50 (OVCAR-3 ovarian) of 0.174 µM and a TGI (OVCAR-3 ovarian) of 15 µM. The GI50 (UACC-62 melanoma) was 1 µM, the TGI (UACC-62 melanoma) was 16 µM and the GI50 (SNB-19 CNS) was 11.7 µM. It also gave a TGI (SNB-19 CNS) of 24 µM, a GI50 (HCT-116 colon) of 0.754 µM and a TGI (HCT-116 colon) of 14.5 µM. It also gave a GI50 (HS 578T breast) of 0.104 µM, a TGI (HS 578T breast) of 6.01 µM and a GI50 ([…]-0 renal) of 1.97 µM. The TGI (786-0 renal) was 11.4 µM, the GI50 (SF-539 CNS) was 0.306 µM and the TGI (SF-539 CNS) was 14.7 µM. The GI50 (M14 melanoma) was 1.79 µM, the TGI (M14 melanoma) was 14.8 µM and the GI50 (MDA-MB-231 breast) was 8.07 µM. It also gave a TGI (MDA-MB-231 breast) of 20.8 µM, a GI50 (NCI-H522 lung) of 0.356 µM and a TGI (NCI-H522 lung) of 12.1 µM. The GI50 (OVCAR-8 ovarian) was 2.2 µM, the TGI (OVCAR-8 ovarian) was 12 µM and the GI50 (MDA-MB-468 breast) was 0.0283 µM. For the same molecule, the TGI (MDA-MB-468 breast) was 0.242 µM, the GI50 (NCI-H460 NSCLC) was 0.0433 µM and the TGI (NCI-H460 NSCLC) was 10.6 µM. The GI50 (MCF7 breast) was 1.49 µM, the TGI (MCF7 breast) was 13 µM and the GI50 (A498 renal) was 0.839 µM. It also gave a TGI (A498 renal) of 18.5 µM, a GI50 (T-47D breast) of 0.228 µM and a TGI (T-47D breast) of 2.36 µM. For the same molecule, the GI50 (OVCAR-5 ovarian) was 8.83 µM, the TGI (OVCAR-5 ovarian) was 21.2 µM and the GI50 (U251 glioblastoma) was 7.52 µM. For the same molecule, the TGI (U251 glioblastoma) was 20.7 µM, the GI50 (SN12C renal) was 3.01 µM and the TGI (SN12C renal) was 18.2 µM. For the same molecule, the GI50 (BT-549 breast) was 1.07 µM, the TGI (BT-549 breast) was 11.4 µM and the GI50 (NCI/ADR-RES ovarian) was 2.44 µM. The TGI (NCI/ADR-RES ovarian) was 11 µM, the GI50 (SF-268 CNS) was under 0.01 µM and the TGI (SF-268 CNS) was 0.781 µM. It also gave a GI50 (HCT-15 colon) of 1.47 µM, a TGI (HCT-15 colon) of 15.6 µM and a GI50 (IGROV1 ovarian) of 3.39 µM. For the same molecule, the TGI (IGROV1 ovarian) was 16 µM, the GI50 (HL-60(TB) leukemia) was under 0.01 µM and the TGI (HL-60(TB) leukemia) was 3.63 µM. The GI50 (SW-620 colon) was 14.6 µM, the TGI (SW-620 colon) was 27.8 µM and the GI50 (UACC-257 melanoma) was 4.81 µM. It also gave a TGI (UACC-257 melanoma) of 18.3 µM, a GI50 (NCI-H226 lung) of 2.94 µM and a TGI (NCI-H226 lung) of 16.3 µM. It also gave a GI50 (K-562 leukemia) of 1.34 µM, a TGI (K-562 leukemia) of 14.1 µM and a GI50 (NCI-H23 lung) of 2.59 µM. It also gave a TGI (NCI-H23 lung) of 16 µM, a GI50 (RPMI-8226 leukemia) of 0.308 µM and a TGI (RPMI-8226 leukemia) of 11.5 µM. For the same molecule, the GI50 (MALME-3M melanoma) was 6.41 µM, the TGI (MALME-3M melanoma) was 19.5 µM and the GI50 (MOLT-4 leukemia) was under 0.01 µM. It also gave a GI50 (DU-145 prostate) of 4.52 µM, a TGI (DU-145 prostate) of 18.1 µM and a GI50 (OVCAR-4 ovarian) of 9.02 µM. The TGI (OVCAR-4 ovarian) was 21.3 µM, the GI50 (NCI-H322M lung) was 6.64 µM and the TGI (NCI-H322M lung) was 19.6 µM. For the same molecule, the GI50 (CAKI-1 renal) was 1.15 µM, the TGI (CAKI-1 renal) was 14.1 µM and the GI50 (HCC-2998 colon) was 10.3 µM. For the same molecule, the TGI (HCC-2998 colon) was 22 µM, the GI50 (PC-3 prostate) was 3.15 µM and the TGI (PC-3 prostate) was 13.2 µM. For the same molecule, the GI50 (KM12 colon) was 0.118 µM, the TGI (KM12 colon) was 13.2 µM and the GI50 (SK-OV-3 ovarian) was 5.02 µM. It also gave a TGI (SK-OV-3 ovarian) of 19 µM, a GI50 (ACHN renal) of 1.52 µM and a TGI (ACHN renal) of 17.3 µM. The GI50 (SF-295 CNS) was 2.17 µM, the TGI (SF-295 CNS) was 18.1 µM and the GI50 (LOX IMVI melanoma) was 1.25 µM. For the same molecule, the TGI (LOX IMVI melanoma) was 13.8 µM, the GI50 (SNB-75 CNS) was 4.06 µM and the TGI (SNB-75 CNS) was 17 µM.
